Our source for the Ki and IC50 values is ChEMBL document CHEMBL1149139, “Azasugar-based MMP/ADAM inhibitors as antipsoriatic agents” (J Med Chem, 2004).

The structures appear in SMILES notation. pIC50, pKi: −log10 of the molar value.

One assay deals with T1, Interstitial collagenase (Homo sapiens, UniProt P03956).
T1 sequence (P03956 whole entry): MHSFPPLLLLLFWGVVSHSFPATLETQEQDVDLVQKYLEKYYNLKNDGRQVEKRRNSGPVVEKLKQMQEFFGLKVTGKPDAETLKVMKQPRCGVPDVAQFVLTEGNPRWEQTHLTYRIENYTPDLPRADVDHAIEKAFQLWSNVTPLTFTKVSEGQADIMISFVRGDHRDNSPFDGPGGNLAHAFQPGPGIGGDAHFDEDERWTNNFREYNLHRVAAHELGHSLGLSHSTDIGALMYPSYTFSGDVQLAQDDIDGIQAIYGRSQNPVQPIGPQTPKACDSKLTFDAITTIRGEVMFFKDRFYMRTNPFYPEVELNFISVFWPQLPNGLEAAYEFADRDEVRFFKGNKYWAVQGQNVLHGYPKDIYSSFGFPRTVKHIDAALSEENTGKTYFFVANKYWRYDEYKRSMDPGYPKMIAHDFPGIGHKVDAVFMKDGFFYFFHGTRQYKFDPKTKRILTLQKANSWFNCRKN
The assay is described as follows: Inhibition of human recombinant matrix metalloprotease 1.

The next assay addresses Stromelysin-1 (Homo sapiens, UniProt P08254). The assay is described as follows: Inhibition of human recombinant matrix metalloprotease 3.
Assay [1] has as its target T2, Disintegrin and metalloproteinase domain-containing protein 17 (Homo sapiens, UniProt P78536). Put plainly: Inhibition of human tumor necrosis factor alpha converting enzyme.
Assay [2] addresses T2, Disintegrin and metalloproteinase domain-containing protein 17. Put plainly: Inhibition of heparin-binding HB-EGF shedding.
In assay [3] the target is Matrix metalloproteinase-9 (Homo sapiens, UniProt P14780). Put plainly: Inhibition of human recombinant matrix metalloprotease 9.
Chain of Matrix metalloproteinase-9 (P14780 whole entry): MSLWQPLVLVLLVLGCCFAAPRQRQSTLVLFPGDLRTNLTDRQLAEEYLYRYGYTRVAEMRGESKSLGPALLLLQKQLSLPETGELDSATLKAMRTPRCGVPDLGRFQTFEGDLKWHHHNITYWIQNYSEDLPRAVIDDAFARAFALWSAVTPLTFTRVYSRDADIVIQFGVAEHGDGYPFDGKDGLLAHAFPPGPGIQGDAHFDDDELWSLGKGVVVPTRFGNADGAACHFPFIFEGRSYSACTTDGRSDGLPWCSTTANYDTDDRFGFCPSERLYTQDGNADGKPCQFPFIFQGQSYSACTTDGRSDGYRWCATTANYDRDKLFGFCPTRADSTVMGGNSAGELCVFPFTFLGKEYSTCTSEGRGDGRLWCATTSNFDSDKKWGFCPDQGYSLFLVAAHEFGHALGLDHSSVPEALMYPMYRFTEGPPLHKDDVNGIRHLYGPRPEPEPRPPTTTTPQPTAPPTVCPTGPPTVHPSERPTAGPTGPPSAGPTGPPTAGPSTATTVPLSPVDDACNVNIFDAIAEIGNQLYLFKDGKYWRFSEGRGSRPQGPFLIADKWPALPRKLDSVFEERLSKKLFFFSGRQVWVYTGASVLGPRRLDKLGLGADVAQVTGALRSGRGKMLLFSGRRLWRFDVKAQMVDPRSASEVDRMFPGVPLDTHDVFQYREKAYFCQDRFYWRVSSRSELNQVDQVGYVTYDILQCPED

T2 sequence (P78536 whole entry, the tested form may be a part): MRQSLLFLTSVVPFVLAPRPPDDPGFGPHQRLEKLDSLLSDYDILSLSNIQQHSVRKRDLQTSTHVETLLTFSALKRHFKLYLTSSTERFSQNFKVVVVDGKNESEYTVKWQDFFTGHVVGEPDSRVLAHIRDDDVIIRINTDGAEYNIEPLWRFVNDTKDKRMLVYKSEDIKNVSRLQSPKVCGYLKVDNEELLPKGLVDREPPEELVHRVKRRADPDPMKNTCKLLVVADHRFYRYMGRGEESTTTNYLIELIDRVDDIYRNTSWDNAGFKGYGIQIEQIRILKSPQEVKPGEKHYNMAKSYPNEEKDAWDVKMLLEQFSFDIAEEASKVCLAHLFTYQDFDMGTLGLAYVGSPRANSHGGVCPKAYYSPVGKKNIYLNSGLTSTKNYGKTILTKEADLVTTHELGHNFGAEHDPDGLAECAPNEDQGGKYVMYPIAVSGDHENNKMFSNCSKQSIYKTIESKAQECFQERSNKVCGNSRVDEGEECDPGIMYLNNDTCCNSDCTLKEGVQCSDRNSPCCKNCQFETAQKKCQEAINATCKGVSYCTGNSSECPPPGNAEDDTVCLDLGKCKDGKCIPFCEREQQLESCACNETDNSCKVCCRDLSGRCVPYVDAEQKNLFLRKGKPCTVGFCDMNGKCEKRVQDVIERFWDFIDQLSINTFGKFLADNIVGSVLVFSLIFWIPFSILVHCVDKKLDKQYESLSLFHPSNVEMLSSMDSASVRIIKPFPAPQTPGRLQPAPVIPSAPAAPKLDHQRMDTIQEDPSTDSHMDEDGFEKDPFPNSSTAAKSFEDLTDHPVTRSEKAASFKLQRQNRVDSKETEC
Chain of Stromelysin-1 (P08254 whole entry, the tested form may be a part): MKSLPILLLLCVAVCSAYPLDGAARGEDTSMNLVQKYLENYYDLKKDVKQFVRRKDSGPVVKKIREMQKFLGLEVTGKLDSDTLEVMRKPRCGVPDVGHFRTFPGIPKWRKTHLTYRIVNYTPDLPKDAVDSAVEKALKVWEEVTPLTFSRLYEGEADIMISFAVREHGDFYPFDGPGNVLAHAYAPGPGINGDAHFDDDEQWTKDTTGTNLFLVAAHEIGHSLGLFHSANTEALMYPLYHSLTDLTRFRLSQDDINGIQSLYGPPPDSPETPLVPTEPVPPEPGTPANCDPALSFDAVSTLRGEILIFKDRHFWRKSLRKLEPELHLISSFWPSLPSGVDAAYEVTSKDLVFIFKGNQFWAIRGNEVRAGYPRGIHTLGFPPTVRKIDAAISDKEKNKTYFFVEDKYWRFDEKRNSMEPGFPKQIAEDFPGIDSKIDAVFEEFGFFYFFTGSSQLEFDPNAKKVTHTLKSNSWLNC

For the compound `O=C(NO)[C@H]1[C@@H](O)[C@H](O)[C@H](O)CN1S(=O)(=O)c1ccc(Oc2ccccc2)cc1`, the pKi on Interstitial collagenase was 8.28; on Stromelysin-1 it was 9.46; in assay [1], 8.21. In assay [2], this compound had a pIC50 of 6.47.
As for `COc1ccc(S(=O)(=O)N2C[C@@H](O)[C@@H](O)[C@H](O)[C@@H]2C(=O)NO)cc1`, the pKi at Interstitial collagenase is 7.59; in assay [1], 7.82. This compound also gave a pIC50 in assay [2] of 6.35.
Turning to `O=C(NO)[C@H]1[C@@H](O)[C@H](O)[C@H](O)CN1S(=O)(=O)c1ccc(OCc2ccccc2)cc1`, the pKi on Interstitial collagenase was < 6.07; on Stromelysin-1 it was 8.68; in assay [1], 8.77; in assay [3], 8.13. The same compound showed a pIC50 in assay [2] of 7.08.
In the same order, the values of `O=C(NO)[C@H]1[C@@H](O)[C@H](O)[C@H](O)CN1S(=O)(=O)c1ccc(-c2ccccc2)cc1` are 6.79, 7.30, 7.68, 7.33 and 4.68.
In the case of `O=C(NO)[C@H]1[C@@H](O)[C@H](O)[C@@H](O)CN1S(=O)(=O)c1ccc(Oc2ccccc2)cc1`, the pIC50 in assay [2] is 6.46.
